Measured values published in patent publication EP0174114A1, “Platinum complexes of ascorbic acid and ascorbic acid analogs” (priority 1984, dated 1986).
“And” between values parts separate entries of the source, which are not always exact repeats. Equal entries are not always repeated.

System: S180 ascites
Experiment: Screening for antitumor activity against S180 ascites (increase in life span, survivors)
Type: in vivo, female CFW Swiss mice
Method: The various Pt ascorbate analogs were tested for antitumor activity against S180 ascites in female CFW Swiss mice by the following procedure.
CFW mice, averaging 20 g, are immediately inspected and placed in newly prepared cages. On day zero the mice are inoculated with 0.2 ml of a freshly prepared saline suspension (0.15 M NaCl) containing […], or a total of 2 x 10^6 cells. This inoculum is freshly prepared using "transfer" mice which have been injected with tumor cells the previous week. This inoculum is the end product of a series of steps which involve (1) the removal of the cells from the peritoneal cavity of the sacrificed transfer mouse, (2) alternate centrifugation-washing (2-3 times with cold saline) to remove occasional blood and other undesirable components, and finally (3) dilution (1:3) of the packed cell volume with saline (the final centrifugation being carried out at 1,000 rpm for 2 min). A cell count is made on a 2,000--fold dilution of this 1:3 suspension by means of a Coulter Counter. A final dilution to 1 x 10^7 cells/ml is made based on the averaged count. On day 1, solutions of the test compounds are prepared and the mice injected, with each mouse of a set of six being injected with the same test compound at the same dose level. Also, on this day, two types of controls (6 mice/set) are employed: (1) Normal (1 set): 0.5 ml of the solvent medium used for the test compound, and (2) Positive control (1 set): a known anti-tumor agent (cis-[Pt(NH3)2cI2] in saline at 8 mg/kg), used to test the response to the biological system.
The effectiveness of a compound is measured in terms of the increase in life span (% ILS) of the test animals relative to the controls (calculated from the day of tumor inoculation, day zero). In order to standardize the test data and permit intercomparisons to be made, the day of evaluation is arbitrarily taken as that day corresponding to twice the mean life-span (or average day of death) of the normal controls. This sets a practical upper limit of 100% on the ILS attainable. For calculation purposes, survivors on the day of evaluation are considered to have died on that day. The % ILS is formulated as: [formula]
ILS values above 50% represent significant activity; those above 75% represent excellent activity.

[1] = positive control of the same experiment, in saline at 8 mg/kg, 8 mg/kg
[2] = dose 5 mg/kg, administered in water
[3] = dose 5 mg/kg, administered in water, injected day 1, 5 mg/kg
[4] = dose 10 mg/kg, administered in water
[5] = dose 20 mg/kg, administered in water
[6] = dose 40 mg/kg, administered in water
[7] = dose 80 mg/kg, administered in water
[8] = dose 160 mg/kg, administered in water
[9] = dose 320 mg/kg, administered in water
[10] = dose 640 mg/kg, administered in water
[11] = dose 800 mg/kg, administered in water
[12] = dose 1280 mg/kg, administered in water
[13] = dose 5 mg/kg, administered in HNO3 ascorbic acid
[14] = dose 10 mg/kg, administered in HNO3 ascorbic acid
[15] = dose 20 mg/kg, administered in HNO3 ascorbic acid
[16] = dose 40 mg/kg, administered in HNO3 ascorbic acid
[17] = dose 80 mg/kg, administered in HNO3 ascorbic acid
[18] = dose 160 mg/kg, administered in HNO3 ascorbic acid
[19] = dose 1920 mg/kg, administered in water
[20] = dose 320 mg/kg, administered in HNO3 ascorbic acid
[21] = dose 640 mg/kg, administered in HNO3 ascorbic acid

Row | Molecule | 30-Day Survivors [4] | %ILS [4] | 30-Day Survivors [5] | %ILS [5] | 30-Day Survivors [6] | %ILS [6] | 30-Day Survivors [7] | %ILS [7] | 30-Day Survivors [8] | %ILS [8] | 30-Day Survivors [9] | %ILS [9] | further results
1 | N.N.[Cl][Pt][Cl] [Control, cis-[Pt(NH3)2cI2], reference compound] |  |  |  |  |  |  |  |  |  |  |  |  | Control 30-Day Survivors [1]: 6/6 and 1/6 and 4/6 and 3/6 and 2/6 and 0/6 and 5/6; Control %ILS [1]: 98% and 67% and 77% and 86% and 79% and 76% and 71% and 94%
2 | [Pt(cis-dach)(ascorbate)].3H2O [[Pt(cis-dach)-(ascorbate)] (Isomer VII)] | 0/6 | 20% | 0/6 | 20% | 0/6 | 43% | 1/6 and 2/6 | 71% and 79% | 5/6 and 3/6 | 98% and 69% | 0/6 | -59% | 30-Day Survivors [2]: 0/6; %ILS [3]: 12%
3 | Pt(ethylenediamine)(ascorbate) [listing 1 of 2 here] | 0/6 | 4% | 0/6 | 6% | 0/6 | 22% | 0/6 | -2% | 0/6 | 10% | 0/6 | 24% | 
4 | [Pt(R,R-trans-dach)(ascorbate)].3H2O [[Pt(R,R-trans-dach)-(ascorbate)]] | 0/6 | 9% | 0/6 | 6% | 0/6 | 9% | 0/6 | 15% and 7% | 0/6 and 0/5 |  | 3/6 | 65% and 55% | 30-Day Survivors [10]: 5/6; %ILS [10]: 100%; 30-Day Survivors [11]: 5/6; %ILS [11]: 72%; 30-Day Survivors [12]: 6/6; %ILS [12]: 100%
5 | Cis-[Pt(NH3)2(ascorbate)].2H2O [cis[Pt(NH3)2-(ascorbate)]] | 0/6 | -2% | 0/6 | 6% | 0/6 | -6% | 0/6 | -1% | 1/6 | 57% | 3/6 | 79% | 
6 | Pt(cis-dach)(ascorbate)2·2H2O [[Pt(cis-dach)-(ascorbate)2]] | 0/6 | 21% | 0/6 | 12% | 0/6 | 29% | 0/6 | 60% | 5/6 | 97% | 1/6 | 68% | 
7 | Pt(ethylenediamine)(ascorbate) [listing 2 of 2 here] |  |  |  |  |  |  |  |  |  |  |  |  | activity against Sarcoma 180 ascites tumors in comparison with the unacidified complex (after contact with an aqueous acid solution): enhanced activity; 30-Day Survivors [13]: 0/6; %ILS [13]: 3%; 30-Day Survivors [14]: 0/6; %ILS [14]: 27%; 30-Day Survivors [15]: 0/6; %ILS [15]: 45%; 30-Day Survivors [16]: 3/6; %ILS [16]: 75%; 30-Day Survivors [17]: 3/6; %ILS [17]: 93%; 30-Day Survivors [18]: 2/6; %ILS [18]: 70%
8 | [Pt (cis-dach) (isoascorbate) [[Pt(cis-dach)-(isoascorbate)]] | 0/6 | 9% | 0/6 | 6% | 0/6 | 6% | 0/6 | 17% | 0/6 | 4% and 10% | 0/6 | 12% and 22% | 30-Day Survivors [10]: 2/6; %ILS [10]: 70%; 30-Day Survivors [11]: 2/6; %ILS [11]: 92%; 30-Day Survivors [12]: 3/6; %ILS [12]: 82%; 30-Day Survivors [19]: 0/6; %ILS [19]: 54%
9 | [Pt(cis-dach)(ascorbate)].3H2O [[Pt(cis-dach)-(ascorbate)] (Isomer VI)] | 0/6 | 23% | 0/6 | 26% | 0/6 | 22% | 6/6 and 0/6 |  | 4/6 and 3/6 | 99% and 77% | 5/6 | 93% | 30-Day Survivors [2]: 0/6; %ILS [3]: 15%
10 | Pt(trans-R,R-dach)(ascorbate) [Pt(trans-R,R-dach) (ascorbate) (Ex. 12)] |  |  |  |  |  |  |  |  |  |  |  |  | 30-Day Survivors [15]: 3/6; %ILS [15]: 67%; 30-Day Survivors [16]: 3/6; %ILS [16]: 83%; 30-Day Survivors [17]: 4/6; %ILS [17]: 82%; 30-Day Survivors [18]: 0/6; %ILS [18]: -75%; 30-Day Survivors [20]: 0/6; %ILS [20]: -78%; 30-Day Survivors [21]: 0/6; %ILS [21]: -94%
